Test results reported in US20260125686A1, “COMPOSITIONS AND METHODS FOR MODULATION OF CFTR” (Cystic Fibrosis Foundation, priority 2022, published 2026).

Target: Exon 22 truncated CFTR (Homo sapiens, UniProt P13569)
Experiment: TECC-24 assay in 16HBEge-W1282X cells
Type: cell-based
Set-up: contain the first 1239 amino acids of a WT CFTR; endogenous in cells
Settings: for FSK+VX-770 AUC/min: in combination SA-08 10 μM
Method: Electrophysiology. Clonal lines were seeded at a density of 4.5×10^5 cells cm-2 onto HTS Transwell 24-well filter inserts pre-coated with human collagen type IV. Cells were grown as submerged cultures in MEM (Gibco, 11095) containing 10% FBS and 1% Pen/Strep, and incubated at 37° C. and 5% CO2. Cells were treated from both the basolateral and apical side with fresh medium containing either control (vehicle) or test article for the treatment time indicated in the figure legends. After a total of 7 days, 16HBE cells typically formed electrically tight epithelia with a transepithelial resistance (Rt) of 200-600 Ω·cm2 and CFTR-mediated Cl— equivalent current (Ieq) was determined as described below.
Prior to functional (Ieq) studies, MEM was replaced with fresh HEPES-buffered (pH 7.4) solutions (assay buffer). A driving force for chloride ions was established through application of a basolateral to apical chloride ion gradient (see buffer composition below). Cell plates were mounted onto an automated robotic assay platform and equilibrated at ˜36° C. for 90 min. After equilibration, transepithelial voltage (Vt) and resistance (Rt) were monitored at ˜5 min intervals using a 24-channel transepithelial current clamp amplifier (TECC-24, EP Design, Bertem, Belgium). Electrode potential differences for each pair of Ag/AgCl voltage electrodes were also monitored at 5 min intervals by taking voltage measurements from a control plate with matching buffer solutions and 16HBE cells that were left untreated. Ieq was calculated from values of Vt and Rt using Ohm's law after correcting for series resistance and (electrode) voltage offsets unrelated to Vt. Ieq traces are plotted as mean±SD (n=3). The first 4 data points reflect baseline Ieq currents prior to sequential stimulation of CFTR with forskolin (10 μM) and VX-770/ivacaftor (1 μM). The last six data points were recorded in the presence of CFTR inhibitor CFTRinh-172 (20 μM). Agonists/antagonists were pre-diluted to 10-fold concentrations in assay buffer and add-ed to either the basolateral (forskolin) or apical (forskolin, VX-770/ivacaftor, and CFTRinh-172) side of the membrane (assay plates only). CFTR-mediated changes in Ieq, (i.e., delta forskolin, delta VX-770, delta CFTRinh-172, or the area under the curve (AUC) between forskolin and CFTRinh-172 addition) are used as a measure of functional CFTR surface expression or treatment-related functional rescue of mutant CFTR.
Assay buffer: CFTR-mediated transepithelial currents were recorded using a Cl— concentration gradient. The basolateral solution contained (mM): 137 NaCl, 4 KCl, 1.8 CaCl2, 1 MgCl2, 10 HEPES and D-Glucose, adjusted to pH 7.4 with NaOH/HCl ([CI-] total: 146.6 mM). The apical solution was matched to the basolateral except for (mM): 137 Na-gluconate replaced 137 NaCl ([Cl—] total: 9.6 mM).
The function of Exon 22 truncated CFTR protein was assayed by the transepithelial chloride conductance assay (TECC-24 assay), as depicted in FIG. 15A and FIG. 15B. 16HBEge-W1282X cells were incubated in 0.02% DMSO (vehicle) or VX445/VX661 prior to the TECC assay. Characteristic CFTR responses to forskolin, potentiator (VX-770), and CFTR inhibition (Inh-172) were recorded in the presence and absence of various doses and combinations of ASO treatments. […] ASO treatment further induced a larger chloride channel conductance compared to no ASO treatment.
The function of various CFTR proteins in the cells can be assessed by comparing the area under curve (AUC) of the induced chloride conductance obtained in the electrophysiology assays. The AUC of various mutant cell lines (e.g., 16HBEge-W1282X cells), with or without treatment, can be normalized to the AUC obtained from cells expressing WT CFTR protein and expressed as either a percentage of WT CFTR (% WT CFTR) or a ratio to WT CFTR (variant/WT CFTR). […]

Exon 22 truncated CFTR, sequence (P13569 with tags, fused parts or gaps): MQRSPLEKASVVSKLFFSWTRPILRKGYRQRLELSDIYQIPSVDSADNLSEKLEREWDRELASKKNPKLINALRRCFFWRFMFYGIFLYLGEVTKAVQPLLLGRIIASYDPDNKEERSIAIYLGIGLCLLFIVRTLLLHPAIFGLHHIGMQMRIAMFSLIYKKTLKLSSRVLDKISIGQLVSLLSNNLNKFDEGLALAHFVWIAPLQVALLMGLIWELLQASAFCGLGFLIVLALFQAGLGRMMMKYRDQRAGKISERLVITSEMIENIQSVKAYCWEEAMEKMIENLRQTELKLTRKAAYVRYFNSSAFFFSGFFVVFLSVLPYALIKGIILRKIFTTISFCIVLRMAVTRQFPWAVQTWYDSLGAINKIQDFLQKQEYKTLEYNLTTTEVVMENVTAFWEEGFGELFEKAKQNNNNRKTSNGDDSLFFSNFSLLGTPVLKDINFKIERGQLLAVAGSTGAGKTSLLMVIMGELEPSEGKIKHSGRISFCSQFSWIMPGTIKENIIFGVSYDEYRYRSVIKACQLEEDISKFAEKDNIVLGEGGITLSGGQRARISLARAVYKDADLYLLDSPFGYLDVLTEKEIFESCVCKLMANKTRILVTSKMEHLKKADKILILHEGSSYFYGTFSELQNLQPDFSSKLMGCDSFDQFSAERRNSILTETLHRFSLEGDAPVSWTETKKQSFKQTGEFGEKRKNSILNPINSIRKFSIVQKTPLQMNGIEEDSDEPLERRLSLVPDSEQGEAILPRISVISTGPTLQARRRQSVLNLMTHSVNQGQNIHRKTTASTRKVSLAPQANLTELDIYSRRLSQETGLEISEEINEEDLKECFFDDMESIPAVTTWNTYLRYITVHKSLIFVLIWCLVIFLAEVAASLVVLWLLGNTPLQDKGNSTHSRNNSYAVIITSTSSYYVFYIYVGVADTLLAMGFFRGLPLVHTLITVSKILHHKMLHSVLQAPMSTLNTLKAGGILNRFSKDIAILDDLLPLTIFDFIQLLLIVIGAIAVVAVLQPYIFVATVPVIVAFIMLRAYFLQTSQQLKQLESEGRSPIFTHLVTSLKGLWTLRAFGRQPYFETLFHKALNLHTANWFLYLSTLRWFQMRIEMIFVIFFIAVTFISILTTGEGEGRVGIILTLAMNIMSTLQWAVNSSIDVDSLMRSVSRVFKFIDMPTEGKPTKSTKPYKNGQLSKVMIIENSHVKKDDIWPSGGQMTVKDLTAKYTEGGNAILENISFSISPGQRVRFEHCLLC

aaagcaagcagtgttcaaatct (antisense AAAGCAAGCAGTGTTCAAATCT; all 2'-MOE, all phosphorothioate, methylation of C not given here) [SD10, PS backbone, 2′-MOE]
chloride conductance AUC, of WT (10 μM SD10, with Trikafta): about 9%
increase in AUC (of WT) (10 μM SD10, without Trikafta treatment): 2.9%
FSK+VX-770 AUC/min ((+) VX-445/VX-661 (3/3 μM), SD-10 100 μM): 11.5+/−0.5 μA/cm^2
FSK+VX-770 AUC/min ((+) VX-445/VX-661 (3/3 μM), SD-10 printed '(μM)' / 10 μM): 10.4+/−1.2 μA/cm^2
FSK+VX-770 AUC/min ((−) VX-445/VX-661, SD-10 100 μM): 4.6+/−0.4 μA/cm^2
FSK+VX-770 AUC/min ((−) VX-445/VX-661, SD-10 printed '(μM)' / 10 μM): 5.5+/−0.7 μA/cm^2

ataaggtaaaagtgatgggatc (antisense ATAAGGTAAAAGTGATGGGATC; all 2'-MOE, all phosphorothioate, methylation of C not given here) [SA8, PS backbone, 2′-MOE]
chloride conductance AUC, of WT (0.1 μM SA08, with Trikafta): about 3.1%
chloride conductance AUC, of WT (1 μM SA08, with Trikafta): ~4.9%
chloride conductance AUC, of WT (2 μM SA08, with Trikafta): ~6.2%

elexacaftor/ivacaftor/tezacaftor [Trikafta]
Ex22 truncated CFTR function, of WT CFTR function (Trikafta (3/3 μM VX-661/445 48 h, 3 μM VX-770), no ASO): ~3%
